Test results from patent publication US20260144788A1, “COMPOUND FOR SHP2 PROTEIN DEGRADATION AND MEDICAL USES THEREOF” (UBIX THERAPEUTICS, INC., priority 2022, published 2026).

Tests used:
SHP2 protein [1] = target: T1, SHP2 protein (Homo sapiens, UniProt Q06124); experiment: Measurement of SHP2 protein degradation in MV-4-11 cells (western blotting); type: cell-based; set-up: endogenous in cells; settings: harvested after 24 hours
T1 sequence (Q06124 1-593): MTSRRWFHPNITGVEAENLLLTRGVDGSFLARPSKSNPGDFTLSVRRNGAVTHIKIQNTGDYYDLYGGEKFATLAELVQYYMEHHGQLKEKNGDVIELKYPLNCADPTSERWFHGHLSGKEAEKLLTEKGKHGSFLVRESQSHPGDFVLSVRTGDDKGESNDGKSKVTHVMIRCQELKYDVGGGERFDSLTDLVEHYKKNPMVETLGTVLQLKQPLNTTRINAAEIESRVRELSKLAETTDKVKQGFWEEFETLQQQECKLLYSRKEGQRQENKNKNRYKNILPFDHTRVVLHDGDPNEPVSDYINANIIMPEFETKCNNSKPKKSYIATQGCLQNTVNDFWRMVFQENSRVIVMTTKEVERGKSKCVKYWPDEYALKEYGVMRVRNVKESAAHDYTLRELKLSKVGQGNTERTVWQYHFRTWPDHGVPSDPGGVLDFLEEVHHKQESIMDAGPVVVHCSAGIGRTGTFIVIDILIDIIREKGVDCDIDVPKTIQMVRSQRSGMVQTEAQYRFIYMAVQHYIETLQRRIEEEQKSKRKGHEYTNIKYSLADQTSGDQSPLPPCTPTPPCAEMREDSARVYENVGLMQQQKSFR
Description: MV-4-11 cells were treated with the synthesized Example compounds, and the amount of SHP2 protein present in the cells was measured using western blotting detection. The protocol for the experiment conducted using MV-4-11 cells is as follows.
[Culture] MV-4-11 cells were resuspended in IMDM MEDIUM (Hyclone, SH30228.01), 5% FBS (Hyclone, SV30207.02), 1% Penicillin-streptomycin (Welgene, LS 202-02) media and seeded at 1×10^6/mL in 12-well plates (1 mL each).
[Compound treatment]12-well plates were treated as follows. 10 mM stock dissolved in DMSO was serially diluted 1/100 or 1/10 with media, and the compounds were treated to the cells at a final concentration of 0.01, 0.1, 1 μM or 0.001, 0.01, 0.1 μM, and harvested after 24 hours. For the negative control group, DMSO diluted 1/100 or 1/1000 in media was added (3 μL DMSO+297 μL media or 1 μL DMSO+999 μL media).
[Harvest] Each well was pipetted with a 1 mL pipette, collected in a 1.5 mL microtube, and centrifuged (500 g, 5 min, 4° C.). The supernatant was removed, washed with PBS, and centrifuged again (500 g, 5 min, 4° C.). The supernatant was removed and a pellet was prepared.
[Cell lysis and sample preparation] Lysis buffer was prepared as follows. RIPA buffer (Biosesang, RC2038-050-00)+0.5 mM PMSF (SIGMA, P7626)+1× Protease/Phosphatase Inhibitor (Cell signaling, 5872S) were added at 50 μL per tube and incubated on ice for 30 minutes (vortexed at 0 and 30 minutes). After sonication (10 sec pulse, 30 sec rest, 5 cycles, 70% amplification) and centrifugation (15,000 g, 15 min, 4° C.), only the supernatant was transferred to a microtube. RIPA buffer 7.5 μL and sample 2.5 μL were added to a 96-well plate to dilute to 1/4, and then BCA Protein Assay Kit (iNtRON, 21071) A and B were mixed in a 50:1 ratio and 200 μL each was added. After that, the plate was incubated at 37° C. for 30 minutes and left at room temperature for 10 minutes. After shaking for 10 seconds with a SYNERGY H1 microplate reader from BioTek, the absorbance was measured at 562 nm. The protein was quantified using the measured value to prepare a sample, which was then incubated at 70° C. for 10 minutes. The sample buffer used at this time is a mixture of NuPAGE or Bolt 4× sample buffer (Invitrogen) and each 10× sample reducing agent according to the gel to be used, and RIPA buffer was used for protein dilution.
[Western blotting detection] Equal amounts of samples were loaded onto NuPAGE or Bolt Bis-tris 4-12% gradient gels and run (200 V, 35 min). This was transferred to […] NC membranes using Trans-blot Turbo (BIO-RAD) (1.3 A constant, 25 V limit, 15 min), and was blocked at room temperature for 1 hour with Skim milk or Intercept Blocking Buffer (LI-COR, 927-60001):0.1% TBST=1:1. Anti-SHPTP2 Mouse (1:500 in 2% BSA/0.2% TBST, size: 70 kDa, Santacruz sc-7384) was incubated overnight at 4° C., and Anti-GAPDH Rabbit (1:2,000 in 2% BSA/0.2% TBST, size: 37 kDa, CST #2118) was incubated at room temperature for 1.5 hours or 3 hours. After washing three times for 5 minutes each with 0.2% TBST washing buffer, secondary antibodies Anti-Mouse IgG (1:5,000 in 2% BSA/0.2% TBST, CST) and IRDye® 680RD Goat anti-Rabbit IgG Secondary Antibody (1:10,000 in 2% BSA/0.2% TBST, LI-COR 926-68071) were added, and incubated on a rocker at room temperature for 45 minutes. The resultants were washed five times for 5 minutes each with 0.2% TBST washing buffer, and detected using LI-COR's Odyssey. GAPDH was detected with a 700 nm channel, and SHPTP2 was detected using SuperSignal West Pico PLUS Chemiluminescent Substrate.

SHP2 protein [2] = target: T1, SHP2 protein; experiment: Measurement of SHP2 protein degradation in NCI-H358 cells (western blotting); type: cell-based; set-up: endogenous in cells; host or cells: NCI-H358; settings: harvested after 24 hours
How it was run: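 H358 cells in RPMI1640/25 mM HEPES/10% FBS, cultured 24 h, then exposed to compound at final 0.001, 0.01 and 0.1 μM for 24 h against a DMSO control. Lysates were normalised for protein by BCA and probed by western blot for SHP2, with GAPDH as loading control.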

SHP2% degradation (SHP2 protein [1]; 0.01 μM) [%] | SHP2% degradation (SHP2 protein [1]; 0.1 μM) [%] | SHP2% degradation (SHP2 protein [2]; 0.01 μM) [%] | SHP2% degradation (SHP2 protein [2]; 0.1 μM) [%] | Structure (SMILES)
– | – | 93.8 | 99.7 | Cc1cn([C@H](C(=O)N2C[C@H](O)C[C@H]2C(=O)NCc2ccc(Cl)cc2OC2CCN(C(=O)C3CCN(c4nccc(Sc5cnc(N6CCC7(CC6)CO[C@@H](C)[C@H]7N)c(CO)n5)c4Cl)CC3)CC2)C(C)C)nn1 [Example 112, (2S,4R)—N-(2-((1-(1-(4-((5-((3S,4S)-4-amino-3-methyl-2-oxa-8-azaspiro[4.5]decan-8-yl)-6-(hydroxymethyl)pyrazin-2-yl)thio)-3-chloropyridin-2-yl)piperidine-4-carbonyl)piperidin-4-yl)oxy)-4-chlorobenzyl)-4-hydroxy-1-((S)-3-methyl-2-(4-methyl-1H-1,2,3-triazol-1-yl)butanoyl)pyrrolidine-2-carboxamide]
– | – | 96.2 | 99.8 | Cc1cn([C@H](C(=O)N2C[C@H](O)C[C@H]2C(=O)NCc2ccc(C#N)cc2OC2CCN(C(=O)C3CCN(c4nccc(Sc5cnc(N6CCC7(CC6)CO[C@@H](C)[C@H]7N)c(CO)n5)c4Cl)CC3)CC2)C(C)C)nn1 [Example 113, (2S,4R)—N-(2-((1-(1-(4-((5-((3S,4S)-4-amino-3-methyl-2-oxa-8-azaspiro[4.5]decan-8-yl)-6-(hydroxymethyl)pyrazin-2-yl)thio)-3-chloropyridin-2-yl)piperidine-4-carbonyl)piperidin-4-yl)oxy)-4-cyanobenzyl)-4-hydroxy-1-((S)-3-methyl-2-(4-methyl-1H-1,2,3-triazol-1-yl)butanoyl)pyrrolidine-2-carboxamide]
– | – | 48.3 | 88.1 | Cc1cc(C(C(=O)N2C[C@H](O)C[C@H]2C(=O)NCc2ccc(-c3scnc3C)cc2O[C@H]2CC[C@H](C(=O)N3CC(Nc4cccc(Sc5cnc(N6CCC(C)(CN)CC6)cn5)c4Cl)C3)CC2)C(C)C)on1 (stereo partly drawn) [Example 114, (2S,4R)—N-(2-(((1R,4S)-4-(3-((3-((5-(4-(aminomethyl)-4-methylpiperidin-1-yl)pyrazin-2-yl)thio)-2-chlorophenyl)amino)azetidine-1-carbonyl)cyclohexyl)oxy)-4-(4-methylthiazol-5-yl)benzyl)-4-hydroxy-1-(3-methyl-2-(3-methylisoxazol-5-yl)butanoyl)pyrrolidine-2-carboxamide]
– | – | 98.3 | 99.2 | Cc1cc(C(C(=O)N2C[C@H](O)C[C@H]2C(=O)NCc2ccc(-c3scnc3C)cc2O[C@H]2CC[C@H](C(=O)N3CC(Nc4cccc(Sc5cnc(N6CCC(C)(CN)CC6)cn5)c4Cl)C3)CC2)C(C)C)on1 (stereo partly drawn) [Example 115, (2S,4R)—N-(2-(((1R,4S)-4-(3-((3-((5-(4-(aminomethyl)-4-methylpiperidin-1-yl)pyrazin-2-yl)thio)-2-chlorophenyl)amino)azetidine-1-carbonyl)cyclohexyl)oxy)-4-(4-methylthiazol-5-yl)benzyl)-4-hydroxy-1-(3-methyl-2-(3-methylisoxazol-5-yl)butanoyl)pyrrolidine-2-carboxamide]

Further lines, the compound ahead of its results:

Structure (SMILES) | SHP2% degradation (SHP2 protein [1]; 0.01 μM) [%] | SHP2% degradation (SHP2 protein [1]; 0.1 μM) [%] | SHP2% degradation (SHP2 protein [2]; 0.01 μM) [%] | SHP2% degradation (SHP2 protein [2]; 0.1 μM) [%]
Cc1ncsc1-c1ccc(CNC(=O)[C@@H]2C[C@@H](O)CN2C(=O)[C@@H](NC(=O)C2(F)CC2)C(C)(C)C)c(OCCCCCCN2CCC(CNc3cccc(Sc4cnc(N5CCC(C)(CN)CC5)cn4)c3Cl)CC2)c1 [Example 1, (2S,4R)—N-(2-((6-(4-(((3-((5-(4-(aminomethyl)-4-methylpiperidin-1-yl)pyrazin-2-yl)thio)-2-chlorophenyl)amino)methyl)piperidin-1-yl)hexyl)oxy)-4-(4-methylthiazol-5-yl)benzyl)-1-((S)-2-(1-fluorocyclopropane-1-carboxamido)-3,3-dimethylbutanoyl)-4-hydroxypyrrolidine-2-carboxamide] | −33.4 | 6.5 | – | –
Cc1ncsc1-c1ccc(CNC(=O)[C@@H]2C[C@@H](O)CN2C(=O)[C@@H](NC(=O)C2(F)CC2)C(C)(C)C)c(OCCN2CCN(CCNc3cccc(Sc4cnc(N5CCC(C)(CN)CC5)cn4)c3Cl)CC2)c1 [Example 2, (2S,4R)—N-(2-(2-(4-(2-((3-((5-(4-(aminomethyl)-4-methylpiperidin-1-yl)pyrazin-2-yl)thio)-2-chlorophenyl)amino)ethyl)piperazin-1-yl)ethoxy)-4-(4-methylthiazol-5-yl)benzyl)-1-((S)-2-(1-fluorocyclopropane-1-carboxamido)-3,3-dimethylbutanoyl)-4-hydroxypyrrolidine-2-carboxamide] | 11.8 | 80.3 | – | –
Cc1cn([C@H](C(=O)N2C[C@H](O)C[C@H]2C(=O)NCc2ccc(-c3scnc3C)cc2OC2CCN(C(=O)C3CCN(c4nccc(Sc5cnc(N6CCC7(CC6)CO[C@@H](C)[C@H]7N)c(CO)n5)c4Cl)CC3)CC2)C(C)C)nn1 [Example 110, (2S,4R)—N-(2-((1-(1-(4-((5-((3S,4S)-4-amino-3-methyl-2-oxa-8-azaspiro[4.5]decan-8-yl)-6-(hydroxymethyl)pyrazin-2-yl)thio)-3-chloropyridin-2-yl)piperidine-4-carbonyl)piperidin-4-yl)oxy)-4-(4-methylthiazol-5-yl)benzyl)-4-hydroxy-1-((S)-3-methyl-2-(4-methyl-1H-1,2,3-triazol-1-yl)butanoyl)pyrrolidine-2-carboxamide] | – | – | 99.8 | 99.8
Cc1cn([C@H](C(=O)N2C[C@H](O)C[C@H]2C(=O)NCc2ccccc2OC2CCN(C(=O)C3CCN(c4nccc(Sc5cnc(N6CCC7(CC6)CO[C@@H](C)[C@H]7N)c(CO)n5)c4Cl)CC3)CC2)C(C)C)nn1 [Example 111, (2S,4R)—N-(2-((1-(1-(4-((5-((3S,4S)-4-amino-3-methyl-2-oxa-8-azaspiro[4.5]decan-8-yl)-6-(hydroxymethyl)pyrazin-2-yl)thio)-3-chloropyridin-2-yl)piperidine-4-carbonyl)piperidin-4-yl)oxy)benzyl)-4-hydroxy-1-((S)-3-methyl-2-(4-methyl-1H-1,2,3-triazol-1-yl)butanoyl)pyrrolidine-2-carboxamide] | – | – | 98.0 | 99.9
